Measured values as given in patent US9695155B2, “Herbicidal substituted pyrimidinyloxy benzene compounds” (E. I. DU PONT DE NEMOURS AND COMPANY, priority 2013, dated 2017).

Columns and labels:
Russian thistle = test: Test D postemergence; format: in vivo, Salsola kali
Text: Seeds of plant species selected from bluegrass (annual bluegrass, Poa annua), blackgrass (Alopecurus myosuroides), canarygrass (littleseed canarygrass, Phalaris minor), chickweed (common chickweed, Stellaria media), galium (catchweed bedstraw, Galium aparine), bromegrass, downy (downy bromegrass, Bromus tectorum), field poppy (Papaver rhoeas), field violet (Viola arvensis), green foxtail (Setaria viridis), deadnettle (henbit deadnettle, Lamium amplexicaule), Italian ryegrass (Lolium multiflorum), kochia (Kochia scoparia), lambsquarters (Chenopodium album), oilseed rape (Brassica napus), pigweed (Amaranthus retroflexus), chamomile (scentless chamomile, Matricaria inodora), Russian thistle (Salsola kali), speedwell (bird's-eye speedwell, Veronica persica), spring barley (Hordeum vulgare), spring wheat (Triticum aestivum), wild buckwheat (Polygonum convolvulus), wild mustard (Sinapis arvensis), wild oat (Avena fatua), wild radish (Raphanus raphanistrum), windgrass (Apera spica-venti), winter barley (Hordeum vulgare), and winter wheat (Triticum aestivum) were planted into a silt loam soil and treated preemergence with test chemicals formulated in a non-phytotoxic solvent mixture which included a surfactant.
At the same time, these species were planted in pots containing Redi-Earth® planting medium (Scotts Company, 14111 Scottslawn Road, Marysville, Ohio 43041) comprising spaghnum peat moss, vermiculite, wetting agent and starter nutrients and treated with postemergence applications of the test chemicals formulated in the same manner. Plants ranged in height from 2 to 18 cm (1- to 4-leaf stage). Treated plants and controls were maintained in a controlled growth environment for 7 to 21 days after which time all species were compared to controls and visually evaluated. Plant response ratings, summarized in Table D, are based on a scale of 0 to 100 where 0 is no effect and 100 is complete control. A dash (-) response means no test result.

palmer pigweed = test: Test E postemergence; format: in vivo, Amaranthus palmeri; settings: for pest or weed control at 31 g/ha / pest or weed control at 62 g/ha / pest or weed control at 125 g/ha / pest or weed control at 250 g/ha / pest or weed control at 16 g/ha: post-emergence, read-out: Plant response rating, Pigweed, Palmer; for pest or weed control at 250 g/ha: 250 g ai/ha
Text: Seeds of plant species selected from corn (Zea mays), soybean (Glycine max), velvetleaf (Abutilon theophrasti), lambsquarters (Chenopodium album), wild poinsettia (Euphorbia heterophylla), palmer pigweed (Amaranthus palmeri), waterhemp (common waterhemp, Amaranthus rudis), surinam grass (Brachiaria decumbens), large (Lg) crabgrass (Digitaria sanguinalis), Brazilian crabgrass (Digitaria horizontalis), fall panicum (Panicum dichotomiflorum), giant foxtail (Setaria faberii), green foxtail (Setaria viridis), goosegrass (Eleusine indica), johnsongrass (Sorghum halepense), ragweed (common ragweed, Ambrosia elatior), barnyardgrass (Echinochloa crus-galli), sandbur (southern sandbur, Cenchrus echinatus), arrowleaf sida (Sida rhombifolia), Italian ryegrass (Lolium multiflorum), dayflower (Virginia (VA) dayflower, Commelina virginica), field bindweed (Convolvulus arvensis), morningglory (Ipomoea coccinea), nightshade (eastern black nightshade, Solanum ptycanthum), kochia (Kochia scoparia), yellow nutsedge (Cyperus esculentus), cocklebur (common cocklebur, Xanthium strumarium), smartweed (ladysthumb smartweed, and hairy beggarticks (Bidens pilosa), were planted into a silt loam soil and treated preemergence with test chemicals formulated in a non-phytotoxic solvent mixture which included a surfactant.
At the same time, plants from these crop and weed species and also horseweed (Canada horseweed, Conyza canadensis), waterhemp_RES1, (ALS & Triazine resistant common waterhemp, Amaranthus rudis), and waterhemp_RES2, (ALS & HPPD resistant common waterhemp, Amaranthus rudis) were planted in pots containing Redi-Earth® planting medium (Scotts Company, 14111 Scottslawn Road, Marysville, Ohio 43041) comprising spaghnum peat moss, vermiculite, wetting agent and starter nutrients were treated with postemergence applications of test chemicals formulated in the same manner. Plants ranged in height from 2 to 18 cm for postemergence treatments (1- to 4-leaf stage). Treated plants and controls were maintained in a greenhouse for 14 to 21 days, after which time all species were compared to controls and visually evaluated. Plant response ratings, summarized in Table E, are based on a scale of 0 to 100 where 0 is no effect and 100 is complete control. A dash (-) response means no test result.

windgrass = test: Test C postemergence; format: in vivo, Apera spica-venti; settings: for Plant response rating (0 to 100), Windgrass: postemergence; for Plant response rating, Windgrass: Postemergence, scale 0 to 100 (0 no effect, 100 complete control)
Text: (§1) Seeds of plant species selected from blackgrass (Alopecurus myosuroides), Italian ryegrass (Lolium multiflorum), wheat, winter (winter wheat, Triticum aestivum), galium (catchweed bedstraw, Galium aparine), corn (Zea mays), large (Lg) crabgrass (Digitaria sanguinalis), giant foxtail (Setaria faberii), johnsongrass (Sorghum halepense), lambsquarters (Chenopodium album), morningglory (Ipomoea coccinea), yellow nutsedge (Cyperus esculentus), pigweed (Amaranthus retroflexus), ragweed (common ragweed, Ambrosia elatior), soybean (Glycine max), barnyardgrass (Echinochloa crus-galli), oilseed rape (Brassica napus), waterhemp (common waterhemp, Amaranthus rudis), kochia (Kochia scoparia), wild oat (Avena fatua), surinam grass (Brachiaria decumbens), foxtail, green (green foxtail, Setaria viridis), goosegrass (Eleusine indica), bromegrass, downy (downy bromegrass, Bromus tectorum), nightshade (eastern black nightshade, Solanum ptycanthum), cocklebur (common cocklebur, Xanthium strumarium), cupgrass, woolly (woolly cupgrass, Eriochloa villosa), bermudagrass (Cynodon dactylon), sunflower, (common oilseed sunflower, Helianthus annuus), Russian thistle (Salsola kali), and velvetleaf (Abutilon theophrasti) were planted into a blend of loam soil and sand and treated preemergence with test chemicals formulated in a non-phytotoxic solvent mixture which included a surfactant.
(§2) At the same time, plants selected from these crop and weed species and also barley, winter (winter barley, Hordeum vulgare), windgrass (Apera spica-venti), chickweed (common chickweed, Stellaria media), deadnettle (henbit deadnettle, Lamium amplexicaule), and canarygrass (littleseed canarygrass, Phalaris minor) were planted in pots containing Redi-Earth® planting medium (Scotts Company, 14111 Scottslawn Road, Marysville, Ohio 43041) comprising spaghnum peat moss, vermiculite, wetting agent and starter nutrients and treated with postemergence applications of test chemicals formulated in the same manner. Plants ranged in height from 2 to 18 cm (1- to 4-leaf stage) for postemergence treatments. Treated plants and controls were maintained in a greenhouse for 13 to 15 days, after which time all species were compared to controls and visually evaluated. Plant response ratings, summarized in Table C, are based on a scale of 0 to 100 where 0 is no effect and 100 is complete control. A dash (-) response means no test result.

goosegrass = test: Test C postemergence; format: in vivo, Eleusine indica; settings: for Plant response rating (0 to 100), Goosegrass: postemergence; for Plant response rating, Goosegrass: Postemergence, scale 0 to 100 (0 no effect, 100 complete control)
Text: as §1, §2

foxtail, green = test: Test C postemergence; format: in vivo, Setaria viridis; settings: for Plant response rating (0 to 100), Foxtail, Green: postemergence; for Plant response rating, Foxtail, Green: Postemergence, scale 0 to 100 (0 no effect, 100 complete control)
Text: as §1, §2

kochia = test: Test C preemergence; format: in vivo, Kochia scoparia; settings: for Kochia plant response rating: preemergence, scale 0 (no effect) to 100 (complete control); for Plant response rating, Kochia: Preemergence, 31 g ai/ha, scale 0 to 100, 0 no effect, 100 complete control
Text: as §1, §2

[1] = 31 g ai/ha, scale 0 to 100 (0 no effect, 100 complete control)
[2] = 62 g ai/ha, scale 0 to 100 (0 no effect, 100 complete control)
[3] = 125 g ai/ha, scale 0 to 100 (0 no effect, 100 complete control)
[4] = 250 g ai/ha, scale 0 to 100 (0 no effect, 100 complete control)
[5] = Postemergence, 31 g ai/ha, scale 0 to 100
[6] = Postemergence, 62 g ai/ha, scale 0 to 100
[7] = Postemergence, 125 g ai/ha, scale 0 to 100
[8] = postemergence, 16 g ai/ha, scale 0 to 100, 0 no effect, 100 complete control

`Clc1cnc(Oc2ccccc2-n2cc(Cl)cn2)nc1` [Compound 3] was tested, and the “Plant response rating, Russian Thistle” value (Russian thistle; 16 g ai/ha, scale 0-100) was 0, the “Plant response rating, Russian Thistle” value (Russian thistle; [1]) was 10 and the “Plant response rating, Russian Thistle” value (Russian thistle; [2]) was 10. For the same compound, the “Plant response rating, Russian Thistle” value (Russian thistle; [3]) was 10 and the “Plant response rating, Russian Thistle” value (Russian thistle; [4]) was 20.

In the case of `N#Cc1cccc(Oc2ncc(Br)cn2)c1-n1cc(C(F)(F)F)cn1` [Compound 59, 3-[(5-bromo-2-pyrimidinyl)oxy]-2-[4-(trifluoromethyl)-1H-pyrazol-1-yl]benzonitrile], the pest or weed control at 31 g/ha (palmer pigweed; [5]) is reported as 80%, the pest or weed control at 62 g/ha (palmer pigweed; [6]) is reported as 85% and the pest or weed control at 125 g/ha (palmer pigweed; [7]) is reported as 100%. For the same compound, the pest or weed control at 250 g/ha (palmer pigweed; Postemergence, scale 0 to 100) was 100% and the pest or weed control at 16 g/ha (palmer pigweed; [8]) was 75%.

For `Clc1cnc(Oc2cccc(Br)c2-n2cc(Br)cn2)nc1` [Compound 65], the “Plant response rating, Pigweed, Palmer” value (palmer pigweed; [5]) was 50, the “Plant response rating, Pigweed, Palmer” value (palmer pigweed; [6]) was 50 and the “Plant response rating, Pigweed, Palmer” value (palmer pigweed; [7]) was 60. For the same compound, the “Plant response rating, Pigweed, Palmer” value (palmer pigweed; postemergence, 8 g ai/ha, scale 0 to 100, 0 no effect, 100 complete control) was 10 and the “Plant response rating, Pigweed, Palmer” value (palmer pigweed; [8]) was 20.

`N#Cc1cccc(Oc2ncc(Cl)cn2)c1-n1cc(C(F)(F)F)cn1` [Compound 58, 3-[(5-chloro-2-pyrimidinyl)oxy]-2-[4-(trifluoromethyl)-1H-pyrazol-1-yl]benzonitrile] was tested, and the pest or weed control at 31 g/ha (palmer pigweed; [5]) was 95%, the pest or weed control at 62 g/ha (palmer pigweed; [6]) was 100% and the pest or weed control at 125 g/ha (palmer pigweed; [7]) was 100%. The pest or weed control at 250 g/ha (palmer pigweed; Postemergence, scale 0 to 100) was 100% and the pest or weed control at 16 g/ha (palmer pigweed; [8]) was 90%.

For `Fc1cnc(Oc2ccccc2-n2cc(Br)cn2)nc1` [Compound 10, 2-[2-(4-bromo-1H-pyrazol-1-yl)phenoxy]-5-fluoropyrimidine], the “Plant response rating (0 to 100), Windgrass” value (windgrass; 125 g ai/ha) was 50, the “Plant response rating (0 to 100), Windgrass” value (windgrass; 250 g ai/ha) was 65 and the “Plant response rating, Windgrass” value (windgrass; 31 g ai/ha, 13 to 15 days) was 10. For the same compound, the “Plant response rating, Windgrass” value (windgrass; 62 g ai/ha) was 10, the “Plant response rating (0 to 100), Goosegrass” value (goosegrass; 125 g ai/ha) was 5 and the “Plant response rating (0 to 100), Goosegrass” value (goosegrass; 250 g ai/ha) was 10. For the same compound, the “Plant response rating, Goosegrass” value (goosegrass; 31 g ai/ha, 13 to 15 days) was 0, the “Plant response rating, Goosegrass” value (goosegrass; 62 g ai/ha) was 5 and the pest or weed control at 31 g/ha (palmer pigweed; [5]) was 70%. It also gave a pest or weed control at 62 g/ha (palmer pigweed; [6]) of 75%, a pest or weed control at 125 g/ha (palmer pigweed; [7]) of 85% and a pest or weed control at 250 g/ha (palmer pigweed; Postemergence, scale 0 to 100) of 95%. For the same compound, the pest or weed control at 16 g/ha (palmer pigweed; [8]) was 60%, the “Plant response rating (0 to 100), Foxtail, Green” value (foxtail, green; 125 g ai/ha) was 0 and the “Plant response rating (0 to 100), Foxtail, Green” value (foxtail, green; 250 g ai/ha) was 30. For the same compound, the “Plant response rating, Foxtail, Green” value (foxtail, green; 31 g ai/ha, 13 to 15 days) was 0 and the “Plant response rating, Foxtail, Green” value (foxtail, green; 62 g ai/ha) was 0.

In the case of `N#Cc1cccc(Oc2ncc(Cl)cn2)c1-n1cc(-n2ccc(C(F)(F)F)n2)cn1` [Compound 284], the “Plant response rating, Russian Thistle” value (Russian thistle; 31 g ai/ha, scale 0-100) is reported as 65, the “Plant response rating, Russian Thistle” value (Russian thistle; [2]) is reported as 75 and the “Plant response rating, Russian Thistle” value (Russian thistle; [3]) is reported as 85. For the same compound, the “Plant response rating, Russian Thistle” value (Russian thistle; [4]) was 95.

`FC(F)(F)c1cnn(-c2ccccc2Oc2ncc(Br)cn2)c1` [Compound 18, 5-bromo-2-[2-[4-(trifluoromethyl)-1H-pyrazol-1-yl]phenoxy]pyrimidine] was tested, and the “Plant response rating, Russian Thistle” value (Russian thistle; 16 g ai/ha, scale 0-100) was 10, the “Plant response rating, Russian Thistle” value (Russian thistle; [1]) was 5 and the “Plant response rating, Russian Thistle” value (Russian thistle; [2]) was 50. The “Plant response rating, Russian Thistle” value (Russian thistle; [3]) was 60, the “Plant response rating, Russian Thistle” value (Russian thistle; [4]) was 100 and the “Kochia plant response rating” value (kochia; 62 g ai/ha) was 60. For the same compound, the “Kochia plant response rating” value (kochia; 125 g ai/ha) was 80, the “Kochia plant response rating” value (kochia; 250 g ai/ha) was 98 and the “Plant response rating, Kochia” value (kochia) was 15.

With `FC(F)(F)c1cnn(-c2ccccc2Oc2ncc(Cl)cn2)c1` [Compound 16] the “Plant response rating (0 to 100), Windgrass” value (windgrass; 125 g ai/ha) was 50, the “Plant response rating (0 to 100), Windgrass” value (windgrass; 250 g ai/ha) was 50 and the “Plant response rating, Windgrass” value (windgrass; 31 g ai/ha, 13 to 15 days) was 30. The “Plant response rating, Windgrass” value (windgrass; 62 g ai/ha) was 40, the “Plant response rating (0 to 100), Goosegrass” value (goosegrass; 125 g ai/ha) was 15 and the “Plant response rating (0 to 100), Goosegrass” value (goosegrass; 250 g ai/ha) was 30. The “Plant response rating, Goosegrass” value (goosegrass; 31 g ai/ha, 13 to 15 days) was 0, the “Plant response rating, Goosegrass” value (goosegrass; 62 g ai/ha) was 10 and the “Plant response rating (0 to 100), Foxtail, Green” value (foxtail, green; 125 g ai/ha) was 30. For the same compound, the “Plant response rating (0 to 100), Foxtail, Green” value (foxtail, green; 250 g ai/ha) was 100, the “Plant response rating, Foxtail, Green” value (foxtail, green; 31 g ai/ha, 13 to 15 days) was 10 and the “Plant response rating, Foxtail, Green” value (foxtail, green; 62 g ai/ha) was 30. For the same compound, the “Kochia plant response rating” value (kochia; 62 g ai/ha) was 80, the “Kochia plant response rating” value (kochia; 125 g ai/ha) was 85 and the “Kochia plant response rating” value (kochia; 250 g ai/ha) was 100. For the same compound, the “Plant response rating, Kochia” value (kochia) was 50.
